Assay results reported in publication PMC5041077, “Metabolic profile and safety of piperlongumine” (Scientific Reports, 2016).
Each block holds one compound with its values, some of them ahead of it.

Tests used:
CYP2C9 = CYP2C9 (Homo sapiens, UniProt P11712); experiment: in vitro
human liver microsomes [1] = experiment: Time course of metabolite formation; type: in vitro ADME; details: PPL at S50, 2 mg/mL HLM
Protocol: The formation of metabolites was investigated through the application of three distinct mass spectrometry instruments. The incubation time was set at 50 min and 2 mg/mL of microsomal protein was employed in these experiments. The increase in the incubation time and microsomal protein aimed to produce a higher amount of metabolites. The concentration of PPL was 283.6 μM. After metabolism reaction, in order to favor a higher recovery of metabolites from microsomal medium liquid-liquid extraction was performed using 1 mL of ethyl acetate as the extractor solvent. The samples (n = 10) were shaken for 10 min at 1500 rpm using an orbital agitator and centrifuged for 5 min at 2860 × g. After that, 750 μL of supernatant was collected, and each one was pooled from ten single reactions. Next, the samples were evaporated to dryness by using a gentle stream of compressed air. To facilitate the identification of compounds that have hydroxyl groups, after sample preparation and before GC-MS analysis, silylation reactions were performed in the extracted samples. The residues were reconstituted in 50 μL of pyridine and 200 μL of BSTFA solution containing 2% TMCS. Following, the samples were slightly agitated and then incubated in a water bath at 75 °C for 120 min. […]
The incubation time was evaluated in different times (5, 10, 20, 40 and 50 min) in order to investigate the formation of metabolites. […]

[2] = tested on: recombinant human CYP (rhCYP) isoforms; experiment: P450 reaction phenotyping by rhCYP isoforms; type: in vitro ADME; details: 50 min incubation
Protocol: The capacity of selected major human P450 isoforms to metabolize PPL was screened using human recombinant isoenzymes. Briefly, PPL (S50 concentration) was added into a 200 μL incubation mixture containing P450 isoform (50 pmol/mL for CYP3A4, CYP1A2, CYP2C9, 2B6, 2D6 and 2C19; 25 pmol/mL for CYP2C8 and […]; final concentrations), NADPH regeneration system solution A (1.3 mM NADP^+ and 3.3 mM glucose-6-phosphate), NADPH regeneration system solution B (0.4 U/mL glucose-6-phosphate dehydrogenase), potassium phosphate buffer pH 7.4 (100 mM), except for CYP2C9 where the phosphate buffer was substituted by tris buffer pH 7.5 (100 mM), maintaining for 50 min in shaking water bath. In order to enhance the sensibility one sample was pooled from 4 single reactions. PPL metabolites were analyzed by a GC-MS as described previously. The MS peak areas of PPL metabolites were recorded to determine the contributions of the P450 enzymes.
(§1) Phenotyping study at 50 min. In order to evaluate the CYP isoforms involved in M4 formation, a similar study as described in the main text was performed, except by the time of incubation of 50 min (Fig. S13).

CYP3A4 = experiment: P450 reaction phenotyping by selective human enzyme inhibitors; type: in vitro ADME; details: human, human liver microsomes, probe PPL (formation of metabolite M2)
Protocol: (§2) This study was performed by evaluating the PPL metabolism and the produced metabolites in the presence of these specific inhibitors. […] The incubation protocol was the same for all inhibitors, except for orphenadrine, which was pre-incubated with all incubation constituents at 37 °C for 15 min before the reaction was initiated by the addition of substrate. The concentration of PPL used in this study corresponded to its S50/2. […] In order to enhance the sensibility one sample was pooled from 4 single reactions. Sample preparations and GC-MS analysis were performed according to assay previous described. The results were expressed as % of remain activity and compared with control sample lacking the inhibitors.
as §1

human liver microsomes [3] = experiment: as above; type: in vitro ADME; details: PPL at S50/2, 10 min incubation
Protocol: as §2, §1

epoxide hydrolase = experiment: Epoxide hydrolase involvement on M2 catalysis (valproic acid); type: in vitro ADME, human; details: valproic acid 550 μM, PPL 63.8 µM, 50 min, 2 mg/mL HLM, with NADPH
Protocol: Epoxide hydrolase involvement on M2 catalysis. To evaluate the epoxide hydrolase involvement on M2 catalysis (Fig. S14), PPL (63.8 µM) was incubated alone or in the presence of valproic acid (550 μM), an epoxide hydrolase inhibitor. The incubation was carried out for 50 minutes at 37°C with 2 mg/mL HLM. Sample preparations and chromatographic analysis were performed according to assay described in phenotyping study session. The results were expressed as % of remain activity and compared with control sample with the absence of the inhibitor.

Chain of CYP2C9 (P11712 whole entry): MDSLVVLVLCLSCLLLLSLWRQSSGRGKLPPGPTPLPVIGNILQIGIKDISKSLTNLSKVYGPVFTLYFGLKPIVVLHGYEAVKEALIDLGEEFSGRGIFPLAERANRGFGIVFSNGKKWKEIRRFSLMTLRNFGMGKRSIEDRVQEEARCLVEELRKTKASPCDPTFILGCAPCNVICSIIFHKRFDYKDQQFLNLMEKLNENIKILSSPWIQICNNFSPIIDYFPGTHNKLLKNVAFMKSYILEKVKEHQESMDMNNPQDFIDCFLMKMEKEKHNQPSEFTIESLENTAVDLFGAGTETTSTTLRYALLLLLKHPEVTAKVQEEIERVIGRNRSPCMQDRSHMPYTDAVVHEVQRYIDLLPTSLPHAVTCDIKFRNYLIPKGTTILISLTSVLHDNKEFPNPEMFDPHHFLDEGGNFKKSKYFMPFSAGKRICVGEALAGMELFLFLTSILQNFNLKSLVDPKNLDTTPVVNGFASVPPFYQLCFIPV

Compound: O=C(O)Cc1ccccc1Nc1c(Cl)cccc1Cl [Diclofenac, diclofenac]
Km (CYP2C9): 47 µM

Compound: CC(=O)N1CCN(c2ccc(OCC3COC(Cn4ccnc4)(c4ccc(Cl)cc4Cl)O3)cc2)CC1 (centres unmarked) [ketoconazole]
inhibition at 10 min, 2 µM (CYP3A4): 83%
inhibitory effect on the formation of metabolite M3 (human liver microsomes [3]; ketoconazole 2 μM): significant inhibitory effect

Compound: CCCC(CCC)C(=O)O [valproic acid]
amount of metabolite M4 produced in presence of valproic acid (epoxide hydrolase): same amount produced

Compound: O=c1cc(-c2ccccc2)oc2c1ccc1ccccc12 [α-naphthoflavone]
inhibition of the formation of metabolite M1 (human liver microsomes [3]; α-naphthoflavone (CYP1A2 inhibitor) 1 μM): strong inhibition

Continued, in another order:

incubation time of maximum production of the metabolite (human liver microsomes [1]): 20 min
Compound: COc1cc(/C=C/C(=O)N2CCC3OC3C2=O)cc(OC)c1OC (centres unmarked) [M2]

incubation time after which the metabolite starts to be produced (lag-time) (human liver microsomes [1]): > 40 min
Compound: COc1cc(/C=C/C(=O)N2CCC(O)C(O)C2=O)cc(OC)c1OC (centres unmarked) [M4]
recombinant isoforms that contributed to M4 formation [2]: CYP2C19, CYP2D6, CYP2E1, CYP2B6 and CYP2C8
